Results reported in PMC7127602 (Bioorganic & Medicinal Chemistry, 2007).

Molecular target: SARS-CoV M^pro (Severe acute respiratory syndrome coronavirus, UniProt P0C6X7)
Type: biochemical

Row | Structure (SMILES) | Increase in IC50 relative to compound 2
1 | O=C(Oc1cncc(Cl)c1)c1ccc(-c2cccc([N+](=O)[O-])c2)o1 [compound 5] | eightfold
2 | O=C(Oc1cncc(Cl)c1)c1ccc(-c2ccccc2[N+](=O)[O-])o1 [compound 4] | threefold
